Experimental data: patent US20260042731A1, “(2,4-DICHLOROPHENOXY)ACETIC ACID ANALOGS” (CORTEVA AGRISCIENCE LLC, priority 2022, published 2026)
Read-outs that look alike come from different tables or passages of the source.

How the values were obtained:
[1] = tested on: weeds ABUTH, AMATA, AMBEL, CHEAL, ERICA; assay: Postemergence herbicide evaluation, overall average % weed control (ABUTH, AMATA, AMBEL, CHEAL, ERICA); format: in vivo; details: post-emergence, read-out: Overall Ave % Weed Control
[2] = tested on: Amaranthus rudis (AMATA), tall water hemp; assay: Postemergence herbicide evaluation, growth of Amaranthus rudis (AMATA); format: in vivo; details: Amaranthus tuberculatus, post-emergence, read-out: Ave. AMATA, percent reduction in plant size relative to the untreated control
[3] = tested on: glyphosate resistant Conyza canadensis (L.) (ERICA), horseweed; assay: Postemergence herbicide evaluation, growth of Conyza canadensis (ERICA); format: in vivo; details: Erigeron canadensis, post-emergence, read-out: Ave. ERICA, percent reduction in plant size relative to the untreated control
[4] = tested on: Ambrosia artemisiifolia (AMBEL), common ragweed; assay: Postemergence herbicide evaluation, growth of Ambrosia artemisiifolia (AMBEL); format: in vivo; details: Ambrosia artemisiifolia, post-emergence, read-out: AVE. AMBEL, percent reduction in plant size relative to the untreated control
[5] = Volatility of compounds measured by thermogravimetric analysis (TGA); format: physicochemical
[6] = tested on: Abutilon theophrasti (ABUTH), velvetleaf; assay: Postemergence herbicide evaluation, growth of Abutilon theophrasti (ABUTH); format: in vivo; details: Abutilon theophrasti, post-emergence, read-out: AVE. ABUTH, percent reduction in plant size relative to the untreated control
[7] = tested on: Chenopodium album (CHEAL), common lambsquarters; assay: Postemergence herbicide evaluation, growth of Chenopodium album (CHEAL); format: in vivo; details: Chenopodium album, post-emergence, read-out: Ave. CHEAL, percent reduction in plant size relative to the untreated control

`O=C(COc1ccc(Cl)cc1Cl)Nc1ccncc1` [Compound D1, 2-(2,4-Dichlorophenoxy)-N-(pyridin-4-yl)acetamide] showed a pest or weed control at 280 g/ha ([1]; 168 h) of 69%, a pest or weed control at 560 g/ha ([1]; 168 h) of 72% and a pest or weed control at 280 g/ha ([1]; 336 h) of 83%. The pest or weed control at 560 g/ha ([1]; 336 h) was 87%, the pest or weed control at 280 g/ha ([1]; 504 h) was 89% and the pest or weed control at 560 g/ha ([1]; 504 h) was 93%. It also gave a pest or weed control at 280 g/ha ([2]; 168 h) of 68%, a pest or weed control at 560 g/ha ([2]; 168 h) of 78% and a pest or weed control at 280 g/ha ([2]; 336 h) of 75%. The pest or weed control at 560 g/ha ([2]; 336 h) was 85%, the pest or weed control at 280 g/ha ([2]; 504 h) was 78% and the pest or weed control at 560 g/ha ([2]; 504 h) was 90%. The pest or weed control at 280 g/ha ([3]; 168 h) was 70%, the pest or weed control at 560 g/ha ([3]; 168 h) was 65% and the pest or weed control at 280 g/ha ([3]; 336 h) was 88%. The pest or weed control at 560 g/ha ([3]; 336 h) was 90%, the pest or weed control at 280 g/ha ([3]; 504 h) was 99% and the pest or weed control at 560 g/ha ([3]; 504 h) was 97%. The pest or weed control at 280 g/ha ([4]; 168 h) was 60%, the pest or weed control at 560 g/ha ([4]; 168 h) was 65% and the pest or weed control at 280 g/ha ([4]; 336 h) was 89%. It also gave a pest or weed control at 560 g/ha ([4]; 336 h) of 94%, a pest or weed control at 280 g/ha ([4]; 504 h) of 78% and a pest or weed control at 560 g/ha ([4]; 504 h) of 99%. For the same molecule, the “TGA Data (rate of weight loss, volatility)” value [5] was 0.05 µg/min, the pest or weed control at 280 g/ha ([6]; 168 h) was 78% and the pest or weed control at 560 g/ha ([6]; 168 h) was 78%. The pest or weed control at 280 g/ha ([6]; 336 h) was 88%, the pest or weed control at 560 g/ha ([6]; 336 h) was 80% and the pest or weed control at 280 g/ha ([6]; 504 h) was 93%. It also gave a pest or weed control at 560 g/ha ([6]; 504 h) of 87%, a pest or weed control at 280 g/ha ([7]; 168 h) of 68% and a pest or weed control at 560 g/ha ([7]; 168 h) of 75%. For the same molecule, the pest or weed control at 280 g/ha ([7]; 336 h) was 78%, the pest or weed control at 560 g/ha ([7]; 336 h) was 85% and the pest or weed control at 280 g/ha ([7]; 504 h) was 97%. It also gave a pest or weed control at 560 g/ha ([7]; 504 h) of 93%.
For `O=C(COc1ccc(Cl)cc1Cl)O/N=C1\CCCc2ccccc21` [Compound A25], the pest or weed control at 280 g/ha ([1]; 168 h, 280 g ae/ha, 7 DAA) was 59%, the pest or weed control at 560 g/ha ([1]; 168 h, 560 g ae/ha, 7 DAA) was 62.5% and the pest or weed control at 280 g/ha ([1]; 336 h, 280 g ae/ha, 14 DAA) was 62.7%. The pest or weed control at 560 g/ha ([1]; 336 h, 560 g ae/ha, 14 DAA) was 69.5%, the pest or weed control at 280 g/ha ([1]; 504 h, 280 g ae/ha, 21 DAA) was 59.5% and the pest or weed control at 560 g/ha ([1]; 504 h, 560 g ae/ha, 21 DAA) was 70.1%. For the same molecule, the pest or weed control at 280 g/ha ([2]; 168 h, 280 g ae/ha, 7 DAA) was 65%, the pest or weed control at 560 g/ha ([2]; 168 h, 560 g ae/ha, 7 DAA) was 57.5% and the pest or weed control at 280 g/ha ([2]; 336 h, 280 g ae/ha, 14 DAA) was 80%. It also gave a pest or weed control at 560 g/ha ([2]; 336 h, 560 g ae/ha, 14 DAA) of 82.5%, a pest or weed control at 280 g/ha ([2]; 504 h, 280 g ae/ha, 21 DAA) of 50% and a pest or weed control at 560 g/ha ([2]; 504 h, 560 g ae/ha, 21 DAA) of 64%. It also gave a pest or weed control at 280 g/ha ([3]; 168 h, 280 g ae/ha, 7 DAA) of 60%, a pest or weed control at 560 g/ha ([3]; 168 h, 560 g ae/ha, 7 DAA) of 72.5% and a pest or weed control at 280 g/ha ([3]; 336 h, 280 g ae/ha, 14 DAA) of 83.5%. It also gave a pest or weed control at 560 g/ha ([3]; 336 h, 560 g ae/ha, 14 DAA) of 77.5%, a pest or weed control at 280 g/ha ([3]; 504 h, 280 g ae/ha, 21 DAA) of 67.5% and a pest or weed control at 560 g/ha ([3]; 504 h, 560 g ae/ha, 21 DAA) of 99%. The pest or weed control at 280 g/ha ([4]; 168 h, 280 g ae/ha, 7 DAA) was 70%, the pest or weed control at 560 g/ha ([4]; 168 h, 560 g ae/ha, 7 DAA) was 80% and the pest or weed control at 280 g/ha ([4]; 336 h, 280 g ae/ha, 14 DAA) was 62.5%. The pest or weed control at 560 g/ha ([4]; 336 h, 560 g ae/ha, 14 DAA) was 67.5%, the pest or weed control at 280 g/ha ([4]; 504 h, 280 g ae/ha, 21 DAA) was 87.5% and the pest or weed control at 560 g/ha ([4]; 504 h, 560 g ae/ha, 21 DAA) was 82.5%. The “TGA Data (rate of weight loss, volatility)” value [5] was 0.8976 µg/min, the pest or weed control at 280 g/ha ([6]; 168 h, 280 g ae/ha, 7 DAA) was 27.5% and the pest or weed control at 560 g/ha ([6]; 168 h, 560 g ae/ha, 7 DAA) was 30%. It also gave a pest or weed control at 280 g/ha ([6]; 336 h, 280 g ae/ha, 14 DAA) of 22.5%, a pest or weed control at 560 g/ha ([6]; 336 h, 560 g ae/ha, 14 DAA) of 27.5% and a pest or weed control at 280 g/ha ([6]; 504 h, 280 g ae/ha, 21 DAA) of 17.5%. It also gave a pest or weed control at 560 g/ha ([6]; 504 h, 560 g ae/ha, 21 DAA) of 30%, a pest or weed control at 280 g/ha ([7]; 168 h, 280 g ae/ha, 7 DAA) of 72.5% and a pest or weed control at 560 g/ha ([7]; 168 h, 560 g ae/ha, 7 DAA) of 72.5%. It also gave a pest or weed control at 280 g/ha ([7]; 336 h, 280 g ae/ha, 14 DAA) of 65%, a pest or weed control at 560 g/ha ([7]; 336 h, 560 g ae/ha, 14 DAA) of 92.5% and a pest or weed control at 280 g/ha ([7]; 504 h, 280 g ae/ha, 21 DAA) of 75%. For the same molecule, the pest or weed control at 560 g/ha ([7]; 504 h, 560 g ae/ha, 21 DAA) was 75%.
